This note sets out measurements from patent US12662489B2 (Sitryx Therapeutics Limited, priority 2023, dated 2026).

Test [1] has as its target T1, MTHFD1 recombinant human enzyme (Homo sapiens, UniProt P11586).
T1 sequence (P11586 2-291 limits assumed): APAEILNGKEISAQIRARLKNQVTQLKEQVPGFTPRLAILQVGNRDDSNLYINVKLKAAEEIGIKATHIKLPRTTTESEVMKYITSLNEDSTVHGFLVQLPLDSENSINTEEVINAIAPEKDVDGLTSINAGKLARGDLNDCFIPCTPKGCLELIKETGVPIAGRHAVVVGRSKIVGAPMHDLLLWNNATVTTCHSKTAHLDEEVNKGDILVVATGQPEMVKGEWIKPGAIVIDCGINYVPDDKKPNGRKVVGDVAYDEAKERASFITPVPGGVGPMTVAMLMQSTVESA
Briefly: MTHFD1 inhibition assay (NAD(P)H-Glo luminescence). Conditions: MTHFD1 IC50, recombinant human enzyme 200 nM, NADP, band.

The test system of test [2] is human CD4+ T cells. Briefly: Human CD4+ T-cell proliferation assay (CFSE, CD3/28 beads). The settings on record: read-out: Proliferation IC50.
For test [3], the target named is T2, MTHFD2 recombinant human enzyme (Homo sapiens, UniProt P13995).
T2 sequence (P13995 36-350): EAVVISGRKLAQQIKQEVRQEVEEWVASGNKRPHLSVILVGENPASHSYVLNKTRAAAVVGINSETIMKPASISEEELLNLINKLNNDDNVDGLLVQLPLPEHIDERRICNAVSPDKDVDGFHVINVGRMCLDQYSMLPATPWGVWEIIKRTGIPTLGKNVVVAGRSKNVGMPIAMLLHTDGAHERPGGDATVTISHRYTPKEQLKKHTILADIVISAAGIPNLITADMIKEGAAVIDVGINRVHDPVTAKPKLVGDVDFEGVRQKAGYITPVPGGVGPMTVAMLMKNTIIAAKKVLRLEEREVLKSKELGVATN
In words: MTHFD2 inhibition assay (NAD(P)H-Glo luminescence). Conditions: for MTHFD1/MTHFD2 IC50 ratio: selectivity of MTHFD2 inhibition over MTHFD1, band.

In test [4] the target is T3, human α4β2 neuronal nicotinic receptor (Homo sapiens, UniProt P17787+P43681).
T3 construct: host or cells: SH-SY5Y cells (membrane homogenates)
In words: α4β2 neuronal nicotinic receptor assay (agonist radioligand, [3H]cytisine). Conditions: transfected SH-SY5Y cell membranes, 0.6 nM [3H]cytisine, band. It counts as binding. Here is the method:
Cell membrane homogenates (30 μg protein) were incubated for 120 min at 4° C. with 0.6 nM [3H]cytisine in the absence or presence of the test compound in a buffer containing 50 mM Tris-HCl (pH 7.4), 120 mM NaCl, 5 mM KCl, 2.5 mM CaCl2 and 1 mM MgCl2. Nonspecific binding was determined in the presence of 10 μM nicotine bitartrate. Following incubation, the samples were filtered rapidly under vacuum through glass fiber filters (GF/B, Packard) presoaked with 0.3% PEI and rinsed several times with ice-cold 50 mM Tris-HCl using a 96-sample cell harvester (Unifilter, Packard).
The filters were dried then counted for radioactivity in a scintillation counter (Topcount, Packard) using a scintillation cocktail (Microscint 0, Packard). The results were expressed as a percent inhibition of the control radioligand specific binding. The standard reference compound was nicotine bitartrate.
A number of example compounds of formula (I) were tested to evaluate their affinity for the human α4β2 neuronal nicotinic receptor expressed in transfected SH-SY5Y cells, determined in a radioligand binding assay.

pIC50: −log10 of the molar value. A value given as a limit tells only on which side of the number the result lay.

T3 sequence (P43681 29-627 limits assumed): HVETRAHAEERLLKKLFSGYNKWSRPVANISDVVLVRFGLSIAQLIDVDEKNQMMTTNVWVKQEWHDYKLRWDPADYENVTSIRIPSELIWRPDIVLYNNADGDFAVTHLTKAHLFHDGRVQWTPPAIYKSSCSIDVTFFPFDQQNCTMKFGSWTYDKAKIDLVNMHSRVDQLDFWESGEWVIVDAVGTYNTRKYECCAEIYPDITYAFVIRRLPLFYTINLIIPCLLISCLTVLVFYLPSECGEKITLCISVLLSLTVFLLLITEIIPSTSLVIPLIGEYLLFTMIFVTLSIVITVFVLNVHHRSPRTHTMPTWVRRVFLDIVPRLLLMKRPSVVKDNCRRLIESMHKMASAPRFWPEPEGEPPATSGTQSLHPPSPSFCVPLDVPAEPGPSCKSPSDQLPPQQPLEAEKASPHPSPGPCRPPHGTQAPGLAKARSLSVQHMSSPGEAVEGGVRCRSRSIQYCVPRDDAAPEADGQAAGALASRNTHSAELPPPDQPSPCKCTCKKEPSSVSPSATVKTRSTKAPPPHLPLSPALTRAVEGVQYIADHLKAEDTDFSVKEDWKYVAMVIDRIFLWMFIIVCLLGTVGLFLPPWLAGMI
T3 sequence (P17787 26-502): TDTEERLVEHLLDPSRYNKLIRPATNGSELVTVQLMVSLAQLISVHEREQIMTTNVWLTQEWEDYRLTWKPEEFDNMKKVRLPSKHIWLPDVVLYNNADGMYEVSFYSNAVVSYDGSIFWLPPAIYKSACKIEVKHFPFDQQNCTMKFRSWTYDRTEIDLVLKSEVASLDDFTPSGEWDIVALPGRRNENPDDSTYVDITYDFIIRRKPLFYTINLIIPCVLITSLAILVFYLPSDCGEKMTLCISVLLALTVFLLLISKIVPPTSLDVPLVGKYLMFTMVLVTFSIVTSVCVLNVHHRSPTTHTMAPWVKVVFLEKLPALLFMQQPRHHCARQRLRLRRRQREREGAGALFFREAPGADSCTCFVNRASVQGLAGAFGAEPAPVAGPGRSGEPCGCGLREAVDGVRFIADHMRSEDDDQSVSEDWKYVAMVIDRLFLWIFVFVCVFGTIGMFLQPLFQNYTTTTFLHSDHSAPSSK

As to `COC[C@H]1CN(c2cc(C)c3c4c(c(=O)oc3c2C)CN(C(=O)c2ccc(C(=O)NS(=O)(=O)N3CCCC3)c(OC3CCC3)c2)CC4)CCN1C` [Example 1, (R)-2-cyclobutoxy-4-(8-(3-(methoxymethyl)-4-methylpiperazin-1-yl)-7,10-dimethyl-5-oxo-1,3,4,5-tetrahydro-2H-chromeno[3,4-c]pyridine-3-carbonyl)-N-(pyrrolidin-1-ylsulfonyl)benzamide], the pIC50 in test [1] is 6.00 to 7.00; in test [2], 8.00 to 9.00; in test [3], 6.00 to 7.00; in test [4], 4.70 to 5.70. Moreover, in test [3], the “MTHFD1/MTHFD2 IC50 ratio” value is “F (<3)”.
Turning to `COC[C@H]1CN(c2cc(C)c3c4c(c(=O)oc3c2C)CN(C(=O)c2ccc(C(=O)NS(=O)(=O)C3(C)CC3)c(N3CCCC3)c2F)CC4)CCN1C` [Example 69, (R)-3-fluoro-4-(8-(3-(methoxymethyl)-4-methylpiperazin-1-yl)-7,10-dimethyl-5-oxo-1,3,4,5-tetrahydro-2H-chromeno[3,4-c]pyridine-3-carbonyl)-N-((1-methylcyclopropyl)sulfonyl)-2-(pyrrolidin-1-yl)benzamide], the pIC50 in test [1] is 7.00 to 8.00; in test [2], 8.00 to 9.00; in test [3] it was 7.00 to 8.00; in test [4], less than 4.00. For the same compound, the “MTHFD1/MTHFD2 IC50 ratio” value in test [3] is on record as “G (^ 3 to 9.0)”.
In the case of `COC[C@H]1CN(c2cc(C)c3c4c(c(=O)oc3c2C)CN(C(=O)c2ccc(C(=O)NS(=O)(=O)N3CCCC3)c(OC3CCCC3)c2F)CC4)CCN1C` [Example 4, (R)-2-(cyclopentyloxy)-3-fluoro-4-(8-(3-(methoxymethyl)-4-methylpiperazin-1-yl)-7,10-dimethyl-5-oxo-1,3,4,5-tetrahydro-2H-chromeno[3,4-c]pyridine-3-carbonyl)-N-(pyrrolidin-1-ylsulfonyl)benzamide], the pIC50 is 8.00 to 9.00 in test [1], 8.00 to 9.00 in test [2], 8.00 to 9.00 in test [3] and 4.00 to 4.70 in test [4]. Also, the “MTHFD1/MTHFD2 IC50 ratio” value in test [3] is listed as “F (<3)”.
For `COC[C@H]1CN(c2cc(C)c3c4c(c(=O)oc3c2C)CN(C(=O)c2cc(N(C)C)c(C(=O)NS(=O)(=O)N3CCCC3)cc2Cl)CC4)CCN1C` [Example 150, (R)-5-chloro-2-(dimethylamino)-4-(8-(3-(methoxymethyl)-4-methylpiperazin-1-yl)-7,10-dimethyl-5-oxo-1,3,4,5-tetrahydro-2H-chromeno[3,4-c]pyridine-3-carbonyl)-N-(pyrrolidin-1-ylsulfonyl)benzamide], the pIC50 is 5.30 to 6.00 in test [1], 7.52 to 8.00 in test [2], 7.00 to 8.00 in test [3] and 4.00 to 4.70 in test [4]. Moreover, the “MTHFD1/MTHFD2 IC50 ratio” value in test [3] is reported as “J (>30)”.
Take `COC[C@H]1CN(c2ccc3c4c(c(=O)oc3c2C)CN(C(=O)c2ccc(C(=O)NS(=O)(=O)N3CCCC3)c(OC3CCC3)c2F)CC4)CCN1C` [Example 54, (R)-2-cyclobutoxy-3-fluoro-4-(8-(3-(methoxymethyl)-4-methylpiperazin-1-yl)-7-methyl-5-oxo-1,3,4,5-tetrahydro-2H-chromeno[3,4-c]pyridine-3-carbonyl)-N-(pyrrolidin-1-ylsulfonyl)benzamide]: the pIC50 in test [1] was 7.00 to 8.00; in test [2], 7.52 to 8.00; in test [3] it was 7.00 to 8.00; in test [4] it was less than 4.00. In addition, the “MTHFD1/MTHFD2 IC50 ratio” value in test [3] is “F (<3)”.
In the case of `COC[C@H]1CN(c2cc(C)c3c4c(c(=O)oc3c2C)CN(C(=O)c2ccc(C(=O)NS(=O)(=O)N3CCCC3)cc2F)CC4)CCN1C` [Example 175, (R)-3-fluoro-4-(8-(3-(methoxymethyl)-4-methylpiperazin-1-yl)-7,10-dimethyl-5-oxo-1,3,4,5-tetrahydro-2H-chromeno[3,4-c]pyridine-3-carbonyl)-N-(pyrrolidin-1-ylsulfonyl)benzamide], the pIC50 is 5.30 to 6.00 in test [1], 5.30 to 6.00 in test [2], 7.00 to 8.00 in test [3] and 4.00 to 4.70 in test [4]. Moreover, the “MTHFD1/MTHFD2 IC50 ratio” value in test [3] is on record as “J (>30)”.
